Source: US10626087B2, “Indoline and tetrahydroquinoline sulfonyl inhibitors of dimetalloenzymes and use of the same” (priority 2015, dated 2020)
Read-outs that look alike come from different tables or passages of the source.

Target: NDM-1 (Klebsiella pneumoniae, UniProt C7C422)
Assay: Inhibition of NDM-1 assay (CHROMACEF hydrolysis, absorbance at 442 nm)
Type: biochemical
Settings: for Activity w/100 uM [I]: enzyme activity with 100 uM inhibitor; for Activity w/200 uM [I]: enzyme activity with 200 uM inhibitor
Method: The ability of the compounds described herein to inhibit NDM-1 was determined in the following way.
A Substrate Working Solution was prepared from CRHROMACEF (6 μM) and Tween-20 (0.02% v/v) in water. An Enzyme Working Solution was prepared with NDM-1 (0.5 μg/mL), Hepes (0.1 M), pH 7 and Tween-20 (0.02% v/v). An Inhibitor Working Solution was prepared from 50 mM of the inhibitor in DMSO. The final assay conditions were 1 mL, Hepes (50 mM), pH 7, Tween-20 (0.02% v/v), CHROMACEF (3 uM), Δ35 NDM-1 (0.25 μg/mL). Extra zinc was omitted from these assays because extra ZnSO4 interferes with the metal binding groups in inhibitors.
[…] Supplemental DMSO was added to reach a final volume of 4 μL. NDM-1 Working Solution ([…]) was added to the cuvette and the inhibitor and enzyme were allowed to incubate for about 20 minutes. The reaction was initiated by added 0.5 mL Substrate Working Solution. The solution was mixed quickly, but gently to avoid bubble formation. […] to start the reaction. The reaction was mixed fast, but gently. The change in absorbance ΔΔAbs442nm/min was measured for each inhibitor from the linear slope from each inhibitor concentration.

[1] = *estimated or actual from a single point, target not given, values match the NDM-1 IC50 column, read-out: IC50 μM*
[2] = fitted IC50 with error, read-out: NDM-1 IC50

Sequence of NDM-1 (C7C422 36-270 limits assumed, looked up): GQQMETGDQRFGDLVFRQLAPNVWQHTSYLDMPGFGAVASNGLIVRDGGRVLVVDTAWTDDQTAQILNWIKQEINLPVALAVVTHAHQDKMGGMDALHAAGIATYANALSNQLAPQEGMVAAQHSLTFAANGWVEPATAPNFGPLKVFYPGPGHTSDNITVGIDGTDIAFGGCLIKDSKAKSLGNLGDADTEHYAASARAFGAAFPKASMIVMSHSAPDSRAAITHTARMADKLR

IC50 [1] [µM] | inhibition at 50 µM (at 50 μM) [%] | inhibition at 5 µM [%] | Structure (SMILES) | also measured
 |  |  | CC(=O)N1CCc2cc(Br)c(S(=O)(=O)/N=C(\N)CC(C)(C)O)cc21 [drawing 95] | Activity w/100 uM [I]: 26%; Activity w/200 uM [I]: 6.4%
9 | 90.3 |  | CC(=O)N1CCc2cc(Br)c(S(=O)(=O)/N=C(\N)CCO)cc21 | inhibition at 10 µM: 54%
100 | 31.9 | 15.5 | CC(=O)N1CCc2cc(Cl)c(S(=O)(=O)NC(=O)CC(O)c3ccccc3)cc21 (stereo not drawn) | 
 |  |  | CC(=O)N1CCc2cc(Br)c(S(=O)(=O)n3cc(C4(O)CCCCC4)nn3)cc21 | Activity w/100 uM [I]: 53%; Activity w/200 uM [I]: 53%
3 | 96.9 | 58.4 | CC(=O)N1CCc2cc(Cl)c(S(=O)(=O)/C=C(\N)CC(O)c3ccccc3)cc21 (stereo not drawn) | 
49 | 54.4 |  | CN/C(CC(C)(C)O)=N\S(=O)(=O)c1cc2c(cc1Br)CCN2C(C)=O | 
2 |  | 77.8 | COC(=O)C/C(N)=N/S(=O)(=O)c1cc2c(cc1Br)CCN2C(C)=O | 
55 | 42 |  | CC(=O)N1CCc2cc(Br)c(S(=O)(=O)/N=C(\N)CC3(O)CCCC3)cc21 | inhibition at 200 µM: 64.6%
 |  |  | O=C(O)c1ccc(CN2C(=O)c3ccccc3C2=O)cc1 | Activity w/100 uM [I]: 54%; Activity w/200 uM [I]: 38%
100 | 28.8 | 8.1 | CC(=O)N1CCc2cc(Br)c(S(=O)(=O)NC(=O)CC(O)c3ccccc3)cc21 (stereo not drawn) | 
 |  |  | CC(=O)N1CCc2cc(Br)c(S(=O)(=O)/N=C(\N)Cc3ccccc3)cc21 [MM-86] | Activity w/100 uM [I]: 63%; Activity w/200 uM [I]: 46%
2.9 |  | 73.8 | CC(=O)N1CCc2cc(Br)c(S(=O)(=O)n3cc(C(C)O)nn3)cc21 (stereo not drawn) | inhibition at 25 µM: 95.1%; IC50 [2]: 2.91 µM
300 | 10 |  | CC(=O)NS(=O)(=O)c1ccc2c(c1)N(C(C)=O)CC2 | inhibition at 200 µM: 34%
14 | 97 |  | CC(=O)N1CCc2cc(Br)c(S(=O)(=O)/N=C(\N)Cc3ccccn3)cc21 | inhibition at 10 µM: 42.9%
 | 12.8 |  | CC(=O)N1CCc2cc(F)c(S(=O)(=O)NC(=O)CC(O)c3ccccc3)cc21 (stereo not drawn) | NDM-1 % Inhibition (at 50 μM): 13.7%
 |  |  | CO/C(CC(C)(C)O)=N\S(=O)(=O)c1cc2c(cc1Br)CCN2C(C)=O [MM-94] | Activity w/100 uM [I]: 96%; Activity w/200 uM [I]: 35%
 |  |  | CC(=O)NS(=O)(=O)c1cc2c(cc1Br)CCN2C(C)=O | inhibition at 500 µM (at 500 μM): 18%
80 | 32.7 | 19.9 | CC(=O)N1CCc2cc(Cl)c(S(=O)(=O)/N=C(\N)CC(C)(C)O)cc21 | 
110 |  |  | CC(=O)N1CCc2cc(Br)c(S(=O)(=O)/N=C(\N)Cc3ccccc3)cc21 [drawing 109] | inhibition at 100 µM: 55.5%; inhibition at 200 µM: 73.8%; IC50 [2]: 110 µM
 |  |  | CC(=O)N1CCc2cc(Br)c(S(=O)(=O)n3cc(-c4ccccc4)nn3)cc21 | inhibition at 100 µM: 25%
60 | 35 |  | CC(=O)N1CCc2cc(Br)c(S(=O)(=O)/N=C(\N)CC3(O)CCCCC3)cc21 | 
100 |  |  | CC(=O)N1CCc2cc(Br)c(S(=O)(=O)n3cc(C(C)(C)O)nn3)cc21 | inhibition at 100 µM: 47%; inhibition at 200 µM: 47%; IC50 [2]: 100 µM
22 |  |  | CC(=O)N1CCc2cc(Br)c(S(=O)(=O)/N=C(\N)CC(C)(C)O)cc21 [drawing 104] | Ki: 6 µM; inhibition at 100 µM: 74%; inhibition at 200 µM: 93.6%; IC50 [2]: 22 µM
2.6 |  | 75.4 | CC(=O)N1CCc2cc(Br)c(S(=O)(=O)/C=C(\N)CC(O)c3ccccc3)cc21 (stereo not drawn) | inhibition at 25 µM: 98.5%; IC50 [2]: 2.62 µM
1 | 99 | 78.3 | CC(=O)N1CCc2cc(Cl)c(S(=O)(=O)/N=C(\N)CCO)cc21 | 
8.7 | 93 |  | CC(=O)N1CCc2cc(Br)c(S(=O)(=O)NC(=O)CC(C)(C)O)cc21 | inhibition at 10 µM: 62.7%; IC50 [2]: 8.74 µM
